Assay results from patent US9211305B2, “Pharmaceutical compositions with glycosaminoglycans and use thereof in the treatment of chronic ulcers” (LABORATORIOS FARMACEUTICOS ROVI S.A., priority 2008, dated 2015).
“And” between values parts separate entries of the source, which are not always exact repeats. Identical values can stand only once. Marks after values point to notes of the source that are not given here.

How the values were obtained:
[1] = tested on: C57BL/KsJ-db/db diabetic mouse; test: Example 4: wound healing in genetically diabetic mouse, subcutaneous route; format: in vivo; conditions: for histopathological Grade / histopathological Score: sacrifice day 21, doses as in the 18th table
Procedure: The genetically diabetic mouse develops resistance to insulin and hyperglycemia similar to those observed in adult diabetes. The total thickness wounds made in the back of these animals takes longer in forming the granulation tissue and in closing than the same wounds caused in non-diabetic animals.
On the first day of the assay, the animals were anesthetized (ketamine+xylazine, 100+10 mg/kg, i.m.). The back of the animal was shaved, the area was cleaned with disinfectant and the location of the wound was marked by means of a template to make its position the same in all the animals.
The wound was made by means of a circular incision with a diameter of approximately 1.5 cm, the skin of the mid-dorsal area being removed. A semipermeable dressing was subsequently placed on the wound. 1 mL/animal of physiological serum was administered by i.p. route after the intervention.
(§1) The wound area was calculated as the percentage of reduction thereof to evaluate the degree of curing thereof, by means of the standardized formula: […]
The measurement performed immediately after the intervention or incision was used as the baseline area. On the following day and for a total of 14 days, the assigned treatments were administered to the animals.
On the following day and for a total of 14 days, 10 mL/kg were administered to the animals by subcutaneous route in the back of the animal, avoiding the area of the wound.
The follow-up of the animals was performed up to a period of 21 days (average time necessary for the healing of the wounds in this animal model). The assessment was performed by means of digital photography of the wound and subsequent image analysis.
The animals were sacrificed on day 21 of the study and the area of the skin where the wound was caused was stored in formol to perform a histopathological evaluation (hematoxylin-eosin staining).
Each section was given a histological score in the grade 1 to grade V range, where I means uncured wound and V means completely epithelialized wound. The score is based on the degree of cell invasion, the formation of granulation tissue, vascularization and epithelialization.

[2] = tested on: Non-Diabetized Rats; test: Wound healing by oral route in non-diabetized rats; format: in vivo, Wistar rat; conditions: for histopathological Grade / histopathological Score: sacrifice day 15, fondaparinux 10 mg/kg, bemiparin 100 mg/kg
Procedure: (§2) Both treatments were administered by oral route at an administration volume of 10 mL/kg. In the case of fondaparinux, a dose of 10 mg/kg was administered and in the case of bemiparin, 100 mg/kg were administered.
(§3) The control group only received the carrier used to prepare the assay product. The carrier for the preparation of the assay product is a 1.5% (w/v) bicarbonate solution in water for injections. It was verified that the pH of the formulations prepared was above 8.00.
(§4) The animals were anesthetized (ketamine+xylazine, 90+10 mg/kg, i.m.). Their back was shaved and cleaned with disinfectant (povidone-iodine) and the area where the wound would be made was marked by means of a template to homogenize its position in all the animals.
(§5) The wound was made by means of a circular incision with a diameter of approximately 1.5 cm, the skin of the mid-dorsal area being removed. 1 mL/animal of physiological serum was administered by i.p. route after the intervention. […]. Analgesia (paracetamol, 1 mg/mL) was provided in drinking water for the 7 days after the intervention.
(§6) On the day after making the wound and for a total of 14 days, the assigned treatments were administered to the animals. The follow-up of the animals was performed, the evolution of the wounds being macroscopically assessed twice a week, by means of digital photography of the wound. The body weight of the animals was also recorded twice a week.
(§7) On the day after the last administration, the animals were sacrificed with anesthesia overdose (pentobarbital sodium). The area where the wound was made was extracted. The front half was frozen in liquid nitrogen and stored in a freezer (−80±5° C.) and the rear half was stored in formol for its subsequent histological processing.
as §1
On the following day and for a total of 14 days, 10 mg/kg were administered to the animals by oral route.
(§8) The follow-up of the animals was performed, the evolution of the wounds being macroscopically assessed twice a week, by means of digital photography of the wound. The body weight of the animals was also recorded twice a week.
(§9) The animals were sacrificed on day 15 of the study and the area of the skin where the wound was caused was stored in formol to perform a histopathological evaluation (hematoxylin-eosin staining).
Each section was given a histological score was given in the grade I to grade V range, where I means uncured wound and V means completely epithelialized wound. The score is based on the degree of cell invasion, the formation of granulation tissue, vascularization and epithelialization.

[3] = tested on: diabetic wistar rat; test: Example 2: ulcer area reduction in streptozocin-diabetized rats, subcutaneous route; format: in vivo; conditions: for percentage of area reduction of day 9 with respect to day 1: single ulcers
Procedure: To perform the present embodiment, doses of 45 mg/kg of streptozocin (STZ) were administered by intramuscular route to make a batch of 8 rats diabetic (Andrades Ja et al. Engineering, expression, and renaturation of a collagen-targeted human bFGF fusion protein. Growth Factors. 2001; 18(4):261-75).
Male wistar rats with a average weight of 250 g per rat were used, to which a dose of 11.25 mg STZ per rat was administered by means of the intramuscular administration of 100 μL in the left paw of each rat.
Sweetened water (350 mg/dL) was administered to all the rats for three days and glucose measurements were performed with a glucometer every day to verify that the rats were indeed diabetized. For this reason, before the administration and at time 4 days after the administration of streptozocin, a drop of blood was extracted from the rat tail vein for the subsequent quantification of glycemia and see whether they were diabetic before starting the ulceration assay.
Once the rats were diabetized, 2 ulcers with a diameter of 1 cm each were made on them using a scalpel. An anesthesia/analgesia protocol with ketamine/xylazine was followed according to the recommendations of the book: “Handbook of laboratory animal management and welfare”:
The ulcers were treated with water and cleaned for 9 days after the ulceration.
The administrations of bemiparin and of fondaparinux were performed by means of a bemiparin solution by subcutaneous route (100 μL) for the treatment of the ulcers.
The diameter of the ulcer was quantified by means of tracing the ulcer onto a transparency to see the progress of the healing.

[4] = tested on: diabetic rat wound model; test: Wound healing by oral route in diabetic rat; format: in vivo, Wistar rat; conditions: 14 days; for histopathological Grade / histopathological Score: oral, sacrifice day 15, fondaparinux 10 mg/kg, bemiparin 100 mg/kg
Procedure: as §2, §3
At the beginning of the assay, diabetes mellitus was induced in all the animals. To that end, they received a single intraperitoneal injection of streptozotocin (60 mg/kg, 10 mL/kg). After 72 hours, the establishment of the diabetes was verified by analyzing the blood glucose levels. To that end, animals were anesthetized with isoflurane and 0.8 mL of blood were extracted from the retroorbicular plexus. The animals had to have values of glucose greater than 15 mmol/L. A week after the induction of the diabetes, the wound was made.
as §4, §5, §6, §7, §1
On the following day and for a total of 14 days, 10 mL/kg were administered to the animals by oral route.
as §8, §9
Each section was given a histological score in the grade I to grade V range, where I means uncured wound and V means completely epithelialized wound. The score is based on the degree of cell invasion, the formation of granulation tissue, […]

[5] = day 21, subcutaneous 14 days, fondaparinux 1 mg/kg, bemiparin 1000 IU Xa/kg
[6] = Fondaparinux rats, Batch 3, 0.22 mg per rat, subcutaneous
[7] = 108 IU rats, Batch 2, subcutaneous
[8] = 217 IU rats, Batch 1, subcutaneous

Compound | percentage of healing of the wound [1, 5] | histopathological Grade ([1]; subcutaneous 14 days) | histopathological Score ([1]; subcutaneous 14 days) | histopathological Grade ([2]; oral, 14 days) | histopathological Score ([2]; oral, 14 days) | percentage of area reduction of day 9 with respect to day 1, Average [3, 6] | percentage of area reduction of day 9 with respect to day 1 [3, 6] | histopathological Grade [4] | histopathological Score [4] | percentage of healing of the wound ([1]; from day 18, subcutaneous 1000 IU Xa/kg) | day on which the wound closes ([1]; subcutaneous 1000 IU Xa/kg) | granulation tissue in the wound, macroscopic ([1]; subcutaneous, after the fifth day of treatment) | reduction of the ulceration area ([2]; oral 100 mg/kg, 14 days) | scab formation ([2]; oral, compared with fondaparinux) | percentage of area reduction of day 9 with respect to day 1, Average [3, 7] | percentage of area reduction of day 9 with respect to day 1, Average [3, 8] | macroscopic healing process ([3]; day 9 with respect to day 0, bemiparin 217 IU) | percentage of area reduction of day 9 with respect to day 1 [3, 7] | percentage of area reduction of day 9 with respect to day 1 [3, 8] | evolution of the wound area (FIG. 11) ([4]; oral 100 mg/kg)
CO[C@H]1O[C@H](COS(=O)(=O)O)[C@@H](O[C@@H]2O[C@@H](C(=O)O)[C@@H](O[C@H]3O[C@H](COS(=O)(=O)O)[C@@H](O[C@@H]4O[C@H](C(=O)O)[C@@H](O[C@H]5O[C@H](COS(=O)(=O)O)[C@@H](O)[C@H](O)[C@H]5NS(=O)(=O)O)[C@H](O)[C@H]4O)[C@H](OS(=O)(=O)O)[C@H]3NS(=O)(=O)O)[C@H](O)[C@H]2OS(=O)(=O)O)[C@H](O)[C@H]1NS(=O)(=O)O [Fondaparinux] | 96% | III (7-9 Moderately thick granulation tissue. It can vary from being dominated by inflammatory cells to greater presence of fibroblasts and collagen deposition, extensive neovascularization, minimum to moderate epithelial migration.) | 7.2 | III (7-9 Moderately thick granulation tissue. It can vary from being dominated by inflammatory cells to greater presence of fibroblasts and collagen deposition, extensive neovascularization, minimum to moderate epithelial migration.) | 9.5 | 20.70% | 17.00%* and 20.69% and 21.32% and 23.81% | III (7-9 Moderately thick granulation tissue. It can vary from being dominated by inflammatory cells to greater presence of fibroblasts and collagen deposition, extensive neovascularization, minimum to moderate epithelial migration.) | 9.5 | – | – | – | – | – | – | – | – | – | – | –
Bemiparin | complete curing | IV (10-12 Thick and vascular granulation tissue dominated by fibroblasts and extensive collagen deposition, the epithelium covers the wound partially or completely.) | 11.5 | III (7-9 Moderately thick granulation tissue. It can vary from being dominated by inflammatory cells to greater presence of fibroblasts and collagen deposition, extensive neovascularization, minimum to moderate epithelial migration.) | 9.0 | – | – | IV (10-12 Thick and vascular granulation tissue dominated by fibroblasts and extensive collagen deposition, the epithelium covers the wound partially or completely.) | 11.3 | 98% | 18 days | a bed covered with granulation tissue | more or less to the same extent as the control animals | much more pronounced scab process | 24.39 ± 7.47% | 27.35 ± 7.25% | macroscopically much better than in the case of fondaparinux | 16.96% and 13.26% and 19.14% and 19.71% | 29.31% and 31.85% and 28.40% and 24.89% | heal much better than those treated with fondaparinux
